These results are taken from patent publication US20230346760A1, “AGENTS TO PREVENT TISSUE DAMAGE FROM CLOSTRIDIUM DIFFICILE INFECTIONS BY INHIBITION OF THE GUT-DAMAGING BACTERIAL TOXINS TCDA AND TCDB” (ALBERT EINSTEIN COLLEGE OF MEDICINE, priority 2020, published 2023).

SMILES strings stand for the structures. “Also recorded” adds a separate entry of the source. Read-outs that look alike come from different tables or passages of the source.

The target in one assay is TcdB (Clostridioides difficile, UniProt P18177). In words: Kinetic inhibition of TcdB glucosyltransferase / UDP-glucose hydrolysis. In kind it is biochemical, Clostridium difficile.
The subject of assay [1] is Rac1 glucosylation by TcdB in IMR90 cells. The assay is classed as cell-based.
Assay [2] has as its target T1, TcdA (Clostridioides difficile, UniProt P16154). The assay is classed as biochemical, Clostridium difficile.
The next assay deals with T2, TcdB-GTD (Clostridioides difficile, UniProt P18177).
T2 construct: (50 mM HEPES pH 7.5, 100 mM KCl, 4 mM MgCl2, 1 mM MnCl2) and 40 μM TcdB-GTD
The assay is classed as binding, Clostridium difficile.

In assay [3] the test system is TcdA induced apoptosis in HT-29 cells. The assay is classed as cell-based.
For assay [4], the system named is TcdB induced cell rounding of CHO-K1 cells. In kind it is cell-based.
For assay [5], the system named is TcdA induced rounding of CHO-K1 cells. In kind it is cell-based.
Assay [6] has as its system Rac1 glucosylation by TcdA in IMR90 cells. In kind it is cell-based.
Assay [7] concerns the target T1, TcdA. In words: biochemical. The assay is classed as binding, Clostridium difficile.

T2 sequence (P18177 2-543 limits assumed): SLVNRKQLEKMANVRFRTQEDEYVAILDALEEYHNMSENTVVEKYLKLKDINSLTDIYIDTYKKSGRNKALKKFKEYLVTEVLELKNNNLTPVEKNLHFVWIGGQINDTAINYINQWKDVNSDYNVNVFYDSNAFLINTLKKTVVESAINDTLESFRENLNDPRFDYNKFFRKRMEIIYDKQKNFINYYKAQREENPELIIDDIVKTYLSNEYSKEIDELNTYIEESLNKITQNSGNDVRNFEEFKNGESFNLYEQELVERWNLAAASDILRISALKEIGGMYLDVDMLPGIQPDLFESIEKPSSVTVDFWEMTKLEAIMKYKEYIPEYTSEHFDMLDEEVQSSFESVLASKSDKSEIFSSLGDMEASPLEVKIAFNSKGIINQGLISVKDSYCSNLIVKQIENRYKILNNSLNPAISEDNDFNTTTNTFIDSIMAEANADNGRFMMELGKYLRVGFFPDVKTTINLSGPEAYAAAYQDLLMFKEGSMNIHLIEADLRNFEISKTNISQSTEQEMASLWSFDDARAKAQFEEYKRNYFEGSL
Chain of TcdB (P18177 1-543 limits assumed): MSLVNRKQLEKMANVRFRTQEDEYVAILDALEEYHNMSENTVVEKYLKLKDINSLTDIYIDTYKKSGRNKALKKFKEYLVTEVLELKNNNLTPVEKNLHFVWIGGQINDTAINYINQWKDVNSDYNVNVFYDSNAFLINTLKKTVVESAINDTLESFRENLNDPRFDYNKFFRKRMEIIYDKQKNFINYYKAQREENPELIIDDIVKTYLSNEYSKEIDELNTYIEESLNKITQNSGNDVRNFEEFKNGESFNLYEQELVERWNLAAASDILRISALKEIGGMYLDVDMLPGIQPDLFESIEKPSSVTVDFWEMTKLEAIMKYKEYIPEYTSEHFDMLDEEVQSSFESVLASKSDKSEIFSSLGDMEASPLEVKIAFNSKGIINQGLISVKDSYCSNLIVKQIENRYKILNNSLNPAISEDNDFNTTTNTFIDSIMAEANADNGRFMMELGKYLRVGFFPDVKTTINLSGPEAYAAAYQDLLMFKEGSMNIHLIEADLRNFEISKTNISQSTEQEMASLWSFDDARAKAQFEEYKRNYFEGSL
T1 sequence (P16154 whole entry, looked up): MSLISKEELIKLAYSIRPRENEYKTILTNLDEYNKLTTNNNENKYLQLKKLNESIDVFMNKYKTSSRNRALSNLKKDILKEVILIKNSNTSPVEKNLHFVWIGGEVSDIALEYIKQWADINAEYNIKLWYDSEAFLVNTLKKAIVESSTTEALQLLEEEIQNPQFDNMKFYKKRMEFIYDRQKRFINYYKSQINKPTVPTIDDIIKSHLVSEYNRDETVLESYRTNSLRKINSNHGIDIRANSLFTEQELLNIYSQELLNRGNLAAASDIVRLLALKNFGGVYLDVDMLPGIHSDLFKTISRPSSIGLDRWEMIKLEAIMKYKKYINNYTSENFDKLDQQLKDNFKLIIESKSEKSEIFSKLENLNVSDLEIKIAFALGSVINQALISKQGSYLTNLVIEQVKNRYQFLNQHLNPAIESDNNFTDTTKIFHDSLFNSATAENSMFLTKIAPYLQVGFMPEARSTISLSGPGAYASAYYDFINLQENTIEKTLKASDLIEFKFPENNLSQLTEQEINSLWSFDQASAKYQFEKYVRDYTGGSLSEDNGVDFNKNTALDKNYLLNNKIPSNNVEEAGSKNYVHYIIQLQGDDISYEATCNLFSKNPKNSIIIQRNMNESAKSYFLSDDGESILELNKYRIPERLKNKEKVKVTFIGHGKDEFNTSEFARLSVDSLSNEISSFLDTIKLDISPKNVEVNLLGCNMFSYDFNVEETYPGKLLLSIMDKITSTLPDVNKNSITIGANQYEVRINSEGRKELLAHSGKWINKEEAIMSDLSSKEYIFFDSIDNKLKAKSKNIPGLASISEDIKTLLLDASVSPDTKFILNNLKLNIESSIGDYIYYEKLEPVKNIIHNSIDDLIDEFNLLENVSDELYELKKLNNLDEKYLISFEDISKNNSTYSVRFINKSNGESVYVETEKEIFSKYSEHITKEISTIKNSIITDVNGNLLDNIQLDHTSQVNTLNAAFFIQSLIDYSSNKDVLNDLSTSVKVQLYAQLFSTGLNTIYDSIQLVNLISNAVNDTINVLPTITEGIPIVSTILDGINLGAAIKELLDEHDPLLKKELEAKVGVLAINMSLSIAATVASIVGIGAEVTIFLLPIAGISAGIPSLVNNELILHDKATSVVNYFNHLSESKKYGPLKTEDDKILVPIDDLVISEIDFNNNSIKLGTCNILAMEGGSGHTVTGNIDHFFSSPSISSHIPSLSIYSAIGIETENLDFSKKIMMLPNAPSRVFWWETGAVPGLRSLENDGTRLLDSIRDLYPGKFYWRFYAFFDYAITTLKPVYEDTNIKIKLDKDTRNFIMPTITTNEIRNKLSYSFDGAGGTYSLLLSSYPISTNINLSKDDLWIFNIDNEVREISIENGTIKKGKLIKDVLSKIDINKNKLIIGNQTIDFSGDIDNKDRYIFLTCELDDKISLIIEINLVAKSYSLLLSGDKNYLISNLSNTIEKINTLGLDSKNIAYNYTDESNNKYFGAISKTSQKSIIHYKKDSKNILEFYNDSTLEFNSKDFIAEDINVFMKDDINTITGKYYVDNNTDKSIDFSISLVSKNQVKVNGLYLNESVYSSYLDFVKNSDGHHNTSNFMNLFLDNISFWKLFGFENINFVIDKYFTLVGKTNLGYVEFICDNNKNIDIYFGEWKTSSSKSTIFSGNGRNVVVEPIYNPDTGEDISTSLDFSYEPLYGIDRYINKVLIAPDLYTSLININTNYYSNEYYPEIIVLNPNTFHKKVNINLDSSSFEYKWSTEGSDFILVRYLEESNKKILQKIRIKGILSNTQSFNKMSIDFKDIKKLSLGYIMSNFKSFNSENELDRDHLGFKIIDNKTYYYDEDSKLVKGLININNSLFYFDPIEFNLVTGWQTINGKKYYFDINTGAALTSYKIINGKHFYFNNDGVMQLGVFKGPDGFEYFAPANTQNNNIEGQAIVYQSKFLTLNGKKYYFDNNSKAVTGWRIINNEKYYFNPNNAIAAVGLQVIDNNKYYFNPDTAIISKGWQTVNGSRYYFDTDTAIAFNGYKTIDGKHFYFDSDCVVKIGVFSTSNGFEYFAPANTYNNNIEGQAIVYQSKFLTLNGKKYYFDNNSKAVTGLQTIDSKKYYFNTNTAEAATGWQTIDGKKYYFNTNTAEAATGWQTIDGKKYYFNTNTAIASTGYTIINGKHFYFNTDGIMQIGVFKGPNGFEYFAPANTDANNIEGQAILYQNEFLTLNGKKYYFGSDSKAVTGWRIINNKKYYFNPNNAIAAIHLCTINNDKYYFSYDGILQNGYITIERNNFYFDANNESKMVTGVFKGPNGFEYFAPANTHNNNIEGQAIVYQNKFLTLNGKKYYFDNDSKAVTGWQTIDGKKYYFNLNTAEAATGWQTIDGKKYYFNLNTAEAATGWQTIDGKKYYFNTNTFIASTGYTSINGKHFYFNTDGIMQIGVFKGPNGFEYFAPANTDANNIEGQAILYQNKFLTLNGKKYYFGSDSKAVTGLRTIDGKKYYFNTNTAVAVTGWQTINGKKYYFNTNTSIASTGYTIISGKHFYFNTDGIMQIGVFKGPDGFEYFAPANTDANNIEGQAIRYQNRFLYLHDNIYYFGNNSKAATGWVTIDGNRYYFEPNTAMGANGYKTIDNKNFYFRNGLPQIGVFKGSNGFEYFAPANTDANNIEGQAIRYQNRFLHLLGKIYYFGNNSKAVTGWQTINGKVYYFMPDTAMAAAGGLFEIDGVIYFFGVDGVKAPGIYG

On to `OC[C@H]1NC[C@H](O)[C@@H](O)[C@@H]1O` [deoxynorjirimycin, reference compound], for which, at TcdB, the “inhibition of Tcds (in words)” value was “poor inhibition”.
For orientation: Kd means the constant that tells how readily two partners part at equilibrium. A high value points to lower affinity. For `OC[C@H]1CNC(O)[C@@H](O)[C@@H]1O` (stereo partly shown) [Noeuromycin, noeuromycin], the “un-glucosylated Rac1 (Mab102) compared to total Rac1” value in assay [1] is “dose-dependent maintenance of un-glucosylated Rac1”. The compound also came in with a Ki on TcdA [2] of 200 nM. At TcdB-GTD, this compound gave a Kd of 180 ± 69.7 nM, an N of 1.2±0.1, a ΔG of -9.3 ± 0.3 kcal/mol and a ΔH of -5.2 ± 0.1 kcal/mol. For the same compound, the “apoptosis (Annexin V signal)” value in [3] is given as “prevented apoptosis”. In addition, the Ki at TcdB (TcdB-UDP, read-out: Ki) came to 4000 nM. Also, in [4], the “protection from cell rounding” value is on record as “prevent rounding”. The “protection from cell rounding” value in assay [5] is listed as “prevent rounding”. In assay [6], the “un-glucosylated Rac1 (Mab102) compared to total Rac1” value is on record as “dose-dependent maintenance of un-glucosylated Rac1”.
On to `O=C1O[C@H](CO)[C@@H](O)[C@H](O)[C@H]1O` [Gluconolactone, reference compound], for which, on TcdB, the “inhibition of Tcds (in words)” value is “poor inhibitor”.
Turning to `OC[C@H]1CNC[C@@H](O)[C@@H]1O` [Isofagomine, (3R,4R,5R)-5-(hydroxymethyl)-3,4-piperidinediol], the “un-glucosylated Rac1 (Mab102) compared to total Rac1” value in [1] was “dose-dependent maintenance of un-glucosylated Rac1”. Besides, on TcdB-GTD, the ITC binding entry is “no binding”, the dissociation constant (Kd) turned out to be 66.9 ± 19.7 nM, the N is 0.5±0.01 and the ΔG was -9.8 ± 0.3 kcal/mol. Besides, at TcdB-GTD, the ΔH was -10.3 ± 0.1 kcal/mol and the “−TΔS” value was 0.5 ± 0.2 kcal/mol. Moreover, in assay [3], the “apoptosis (Annexin V signal)” value was “prevented apoptosis”. Besides, at TcdB (in the presence of 2×Ki for UDP, read-out: kinetic Ki (apparent Ki)), the Ki is 290 nM. Also, the increase of affinity on TcdB (when UDP is present at 2×Ki) is given as 3 fold. The mechanism of inhibition entry at TcdB (with respect to UDP-glucose) is “uncompetitive”. In assay [4], the “protection from cell rounding” value is listed as “sufficient to protect CHO-K1 cells from rounding; also recorded: prevent rounding”. Further, the “protection from cell rounding” value in assay [5] is recorded as “prevent rounding”. The compound further yielded a Kd at TcdA [7] of 7 nM. In addition, in assay [6], the “un-glucosylated Rac1 (Mab102) compared to total Rac1” value is given as “dose-dependent maintenance of un-glucosylated Rac1”.
